Measurements as given in US20240398779A1, “USE OF FACTOR B INHIBITORS FOR THE TREATMENT OF AGE-RELATED MACULAR DEGENERATION” (priority 2021, published 2024).

Tests used:
AP activity = test: Wieslab AP assay in MAD study; format: in vivo, human; conditions: for inhibition of AP activity (Wieslab AP assay): sustained over 14 days of dosing
Bb = Bb level in MAD study; format: in vivo, human; conditions: all iptacopan cohorts
[1] = Clinical phase 2 studies in PNH, IgAN, C3G; format: in vivo, human
[2] = 39-week dog toxicity study, safety margins for human exposure; conditions: 39-week dog study
[3] = First in human study in healthy volunteers, single ascending dose (SAD) and multiple ascending dose (MAD)

CCO[C@H]1CCN(Cc2c(OC)cc(C)c3[nH]ccc23)[C@H](c2ccc(C(=O)O)cc2)C1 [iptacopan]
inhibition of AP activity (Wieslab AP assay) (AP activity; 100 mg b.i.d.): ≥ 80% | inhibition of AP activity (Wieslab AP assay) (AP activity; 200 mg b.i.d.): ≥ 80% | suppression of AP activity (Wieslab AP assay) (AP activity; MAD study, 10 to 200 mg b.i.d. for 2 weeks): dose dependent suppression of AP activity | Bb level decrease from the baseline (Bb): 30-40% | response rate ([1]; 200 mg b.i.d., all tested indications (PNH, IgAN, C3G)): highest response rate | proteinuria ([1]; IgAN study Part 1, 200 mg b.i.d., over 90 days): reduce proteinuria | unbound systemic exposure (AUC-based) at 200 mg b.i.d. below lowest exposure with off-target testicular effects (LOAEL) [2]: 17.3 fold | deaths, SAEs, or AEs leading to study drug discontinuation ([3]; 102 healthy volunteers, SAD and MAD): No deaths, SAEs, or AEs leading to study drug discontinuation were observed | permeability ([3]; first in human studies): good permeability | solubility ([3]; first in human studies): high solubility
